We go through 3 compounds from PMC1247619 (Environmental Health Perspectives, 2004).

Each structure is given as a SMILES string.

In data set [1] the test system is estrogen receptors (ERs). Description: In vivo (in utero) luciferase measurement with IVIS imaging in transgenic ERE-luciferase embryos. The arrangement: species or system mouse. The following applies: 10,000 μg/kg, 8 hr after exposure. On the procedure:
(§1) To obtain transgenic embryos, heterozygote transgenic males from line INS3 were mated with wild-type females (F1 from C57Bl/6J × CBA). Heterozygote males were used so that every litter would also contain wild type embryos, which could serve as an internal negative control. Females were checked daily for the presence of a vaginal plug, and when a plug was detected, that day was designated 0.5 day postcoitum (dpc).
(§2) Animal experiments were performed with approval of the Netherlands Academy of Arts and Sciences Animal Ethics Committee. The IVIS imaging experiments were done with additional approval of the Animal Ethics Committee of NV Organon.
(§3) We considered one litter as a statistical unit rather than one embryo because we assumed that all embryos in one litter were subject to the same variation of the compound injection and placental transfer. Therefore, the average ± SEM per litter was calculated, and these were then averaged to express the luciferase activity per group. All data were log-transformed and tested for normality with the Shapiro-Wilks test using SPSS 12.0 (SPSS, Chicago, IL, USA).

The target in another data set is T1, human ER-α (hER-α) (Homo sapiens, UniProt P03372).
T1 construct: expressed in transfected cells
T1 sequence (P03372 1-595): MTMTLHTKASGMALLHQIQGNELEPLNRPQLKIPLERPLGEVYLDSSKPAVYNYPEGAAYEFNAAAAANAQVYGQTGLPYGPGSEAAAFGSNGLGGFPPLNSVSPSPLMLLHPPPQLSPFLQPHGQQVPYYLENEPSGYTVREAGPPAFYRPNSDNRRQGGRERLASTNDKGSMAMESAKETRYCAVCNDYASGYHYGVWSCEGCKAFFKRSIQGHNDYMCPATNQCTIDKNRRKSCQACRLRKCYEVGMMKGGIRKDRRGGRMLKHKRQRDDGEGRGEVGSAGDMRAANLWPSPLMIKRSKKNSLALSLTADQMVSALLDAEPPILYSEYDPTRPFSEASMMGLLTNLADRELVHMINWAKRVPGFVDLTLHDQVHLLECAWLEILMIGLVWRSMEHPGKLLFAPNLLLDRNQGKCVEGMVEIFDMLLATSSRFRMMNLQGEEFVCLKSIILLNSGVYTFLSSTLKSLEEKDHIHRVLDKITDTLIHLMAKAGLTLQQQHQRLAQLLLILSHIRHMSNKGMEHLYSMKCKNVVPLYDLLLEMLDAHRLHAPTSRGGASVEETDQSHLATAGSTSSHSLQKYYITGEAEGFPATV
In words: In vitro estrogenic activity assay, stable HEK cell line with hER-α and ERE-luciferase reporter. The data set is classed as cell-based. As to the method:
(§4) Briefly, cells were plated in 96-well tissue culture plates (NUNC, Life Technologies, Breda, The Netherlands) in medium consisting of phenol red–free Dulbecco’s modified Eagle’s medium/F12 (1:1) medium containing 3 × 10^−8 M selenite, 10 μg/mL transferrin, 0.2% (wt/vol) bovine serum albumin, and 5% (wt/vol) dextran-coated charcoal-stripped fetal calf serum. […] Luciferase activity of 25 μL cell lysate was measured with the Luclite Luciferase Reporter gene assay kit (Perkin-Elmer, Brussels, Belgium) according to the manufacturer’s instructions using 25 μL Luclite solution on a Topcount liquid scintillation counter (Perkin-Elmer).
(§5) The in vitro dose–response activation curves obtained with the stable cell lines were fitted using the sigmoidal fit {y = a0 + a1/1 + exp[–(x – a2)/a3]} in Slidewrite Plus for Windows (version 3.0; BIS, Ridderkerk, The Netherlands), which determines the fitting coefficients by an iterative process minimizing the c2 merit function (least squares criterion). […] The cell line data shown are the average of at least two independent experiments with each experimental point performed in triplicate. Data are shown as a percentage of maximal induction by E2.
(In general: In a reporter assay the amount or activity of a reporter protein is the signal.)

For a further data set, the system named is human and mouse ER-α. The arrangement: method as in Matthews et al. 2000. The following applies: ref Matthews et al. 2000; cited from earlier work.
Another data set concerns uterine wet weight. Conditions: cited from earlier work.
For data set [2] the following is noted: pregnant mice, 100 mg/kg subcutaneously; ref Domoradzki et al. 2003; Shin et al. 2002; Uchida et al. 2002; cited from earlier work.
In a further data set the target is T2, hER-β (Homo sapiens, UniProt Q92731).
T2 construct: expressed in transfected cells
T2 sequence (Q92731 whole entry): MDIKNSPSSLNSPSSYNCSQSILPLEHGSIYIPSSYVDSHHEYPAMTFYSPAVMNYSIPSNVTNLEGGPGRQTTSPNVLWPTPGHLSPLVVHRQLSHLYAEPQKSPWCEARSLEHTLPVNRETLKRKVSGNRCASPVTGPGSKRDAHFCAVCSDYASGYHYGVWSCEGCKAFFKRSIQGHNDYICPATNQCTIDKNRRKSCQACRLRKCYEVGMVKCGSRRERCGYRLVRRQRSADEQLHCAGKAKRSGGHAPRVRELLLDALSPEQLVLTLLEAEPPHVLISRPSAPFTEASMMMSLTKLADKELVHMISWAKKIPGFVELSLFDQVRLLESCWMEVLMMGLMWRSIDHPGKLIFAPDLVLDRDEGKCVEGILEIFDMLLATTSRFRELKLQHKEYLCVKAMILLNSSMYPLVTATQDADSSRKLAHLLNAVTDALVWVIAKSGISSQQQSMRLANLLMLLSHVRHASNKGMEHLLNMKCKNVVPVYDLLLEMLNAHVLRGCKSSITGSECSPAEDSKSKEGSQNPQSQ
Description: In vitro estrogenic activity assay, stable HEK cell line with hER-β and ERE-luciferase reporter. The class given is cell-based. On the procedure:
as §4, §5

The test system of data set [3] is estrogen receptors (ERs). Description: Ex vivo luciferase measurement in lysates of transgenic embryos exposed in utero. The arrangement: species or system mouse. On the procedure:
as §1, §2
When embryos were isolated from the amniotic membranes, we kept tails separated and stored at –20°C for subsequent DNA isolation and polymerase chain reaction for presence of the transgene, as described previously ([Legler et al. 2000]). Only transgenic embryos were used for further luciferase measurement. Subsequently, embryos were thawed on ice and lysis buffer [1% (vol/vol) Triton X-100, 2.5 × 10^−2 M glycylglycine, 1.5 × 10^−2 M MgSO4, 4 × 10^−3 M EGTA, and 1 × 10^−3 M dithiothreitol (DTT)] was added. Next, samples were sonicated, the lysate centrifuged, and the supernatant collected. […] Luciferase activity was corrected for protein content as measured with the Bradford assay.
as §3

On the set-up of data set [4]: method as in Takahashi and Oishi 2000. The following applies: pregnant rats; ref Takahashi and Oishi 2000; cited from earlier work.
The test system of the next data set is ER. Set-up: method as in Nagel et al. (2001). The following applies: 1 mg/kg; ref Nagel et al. (2001); cited from earlier work.
Details of data set [5]: method as in McLachlan 1977. Conditions: 14C-DES injected in pregnant mice; ref McLachlan 1977; cited from earlier work.
The test system of data set [6] is estrogen receptors (ERs). Conditions: adult transgenic animals; ref Lemmen et al. 2004; cited from earlier work.

On to `CC(C)(c1ccc(O)cc1)c1ccc(O)cc1` [BPA, bisphenol A], for which, in the data set with estrogen receptors (ERs) [1], the “luciferase activity versus oil-exposed animals, IVIS” value was “not statistically significant”. The “times less active than DES in activating ER-α” value on human ER-α (hER-α) is given as 5,000 times. Besides, the “affinity of human versus mouse ER-α” value with human and mouse ER-α was “same affinity”. The “uterine wet weight response” value with uterine wet weight (1 mg/kg, ref Nagel et al. (2001)) is on record as “did not induce”. Further, the uterotrophic response entry with uterine wet weight (CD-1 mice, 100 mg/kg, ref Markey et al. 2001) was “induced”. Moreover, in the data set with uterine wet weight (CFLP mice, 0.5 mg/mouse (~ 16.7 mg/kg), ref Coldham et al. 1997), the “activity in the uterine wet weight assay” value was “inactive”. In addition, the “toxicity in the uterine wet weight assay” value in the data set on uterine wet weight (mouse, in vivo, 167 mg/kg) is “toxic”. Also, in [2], the “time after exposure at which detected in fetal sera, liver, brain, uterus and testes” value is reported as 30 min. Besides, on hER-β, the “times less active than DES toward ER-β transactivation” value is listed as 1,400 times. In addition, the “luciferase activity versus oil-exposed controls, embryo lysates” value is “significantly higher” with estrogen receptors (ERs) [3] (1,000 μg/kg, 8 hr after exposure) and “significantly higher” in the data set with estrogen receptors (ERs) [3] (10,000 μg/kg, 8 hr after exposure). Moreover, the “dose at which in utero luciferase activation was significant from oil-exposed controls” value in the data set on estrogen receptors (ERs) [3] (8 hr after exposure) worked out at 1 mg/kg. Moreover, the “luciferase activity versus oil-exposed animals, embryo lysates” value with estrogen receptors (ERs) [3] (24 hr after exposure, BPA 10–10,000 μg/kg (Figure 2)) is “no difference”. The “time of peak concentration in fetal circulation” value in [4] was 15 to 20 min. Besides, the “ER transcriptional activity in the adult uterus” value in the data set on ER is “significant increase”.

For `CC/C(=C(/CC)c1ccc(O)cc1)c1ccc(O)cc1` [DES, diethylstilbestrol, reference compound], in the data set on human and mouse ER-α, the “affinity of human versus mouse ER-α” value is given as “same affinity”. In addition, the “time of peak fetal plasma levels” value in [5] was 2 h.

As to `C[C@]12CC[C@@H]3c4ccc(O)cc4CC[C@H]3[C@@H]1CC[C@@H]2O` [E2, 17β-estradiol], in the data set on estrogen receptors (ERs) [6], the “time of peak luciferase activity after exposure” value is 8 h.
